From US5079247A, “N^1 -substituted benz(cd)indol-2-imine compounds as cardiovascular agents” (American Cyanamid Company, priority 1990, dated 1992)

Legend:
[1] = tested on: CaCl2-induced cardiac arrhythmias, fibrillation and cardiac death in mice; test: Antiarrhythmic/antifibrillatory activity in anesthetized mice, calcium chloride challenge; type: in vivo, mice of the Swiss Webster Strain; conditions: Mus musculus, iv, 0.25 h; Dose = 10 mg/kg I.V.; calcium chloride 200 mg/kg i.v.; 15 minutes observation; read-out: CaCl2 Mice Surviving / Mice Tested (converted)
Excerpt: (§1) Intravenous administration of high doses of calcium or potassium chloride in animals produces cardiac arrhythmias, cardiac fibrillation and cardiac arrest. Any agent that can prevent these events is considered an antiarrhythmic/antifibrillatory agent. (Meth. and Find Exptl. Clin Pharmacal.2:223-252(1980); Pharmacol Ther. 24:401-433 (1984); Experimental Cardiac and Antiarrhythmic Drugs, L. Szekeres and Gy. J. Dapp, Akademiai Kiado Preso, Budapest, 9-448 (1971)).
(§2) The method employed is as follows: Male mice of the Swiss Webster Strain (Charles River, Wilmington, MA) weighing 25-35 g were anesthetized with ethyl carbamate (urethan) (1.5g/kg body weight i.p.). A 25-gauge needle attached to PE-20 tubing was inserted into a caudal vein for drug administration. The lead II ECG was recorded by needle electrodes placed subcutaneously in the limbs. All data were collected on a Gould Brush recorder. Animals were observed 5 minutes before drug administration. A 5, 15 or 30 minute period following drug administration was allowed before the bolus injection of calcium chloride, 200 mg/ kg i.v. or potassium chloride, 62.5 mg/kg i.v. Control mice received 4 ml/kg of 0.9% sodium chloride i.v. Mice were observed an additional 15 minutes for arrhythmias,fibrillation, survival or death. Any compound at a dose of less than 20 mg/kg i.v. in either test that protects from cardiac death 3 or more mice out of 6 mice, is considered active.

[2] = molecular target: T1, thromboxane synthetase enzyme (Rattus norvegicus, UniProt P49430); test: Thromboxane synthetase enzyme inhibition (TXB2 formation in platelet suspension, RIA); type: cell-based, Okamoto-Aoki spontaneously hypertensive rats (SHR); conditions: concentration 1 × 10^-4 M; SHR platelet suspension, 10 minutes at 37° C.
T1 construct: The platelets were isolated by centrifuging the PRP for 10 minutes; from tissue; host or cells: washed platelets from arterial blood of Okamoto-Aoki spontaneously hypertensive rats (animals from Taconic Farms)
T1 sequence (P49430 1-533): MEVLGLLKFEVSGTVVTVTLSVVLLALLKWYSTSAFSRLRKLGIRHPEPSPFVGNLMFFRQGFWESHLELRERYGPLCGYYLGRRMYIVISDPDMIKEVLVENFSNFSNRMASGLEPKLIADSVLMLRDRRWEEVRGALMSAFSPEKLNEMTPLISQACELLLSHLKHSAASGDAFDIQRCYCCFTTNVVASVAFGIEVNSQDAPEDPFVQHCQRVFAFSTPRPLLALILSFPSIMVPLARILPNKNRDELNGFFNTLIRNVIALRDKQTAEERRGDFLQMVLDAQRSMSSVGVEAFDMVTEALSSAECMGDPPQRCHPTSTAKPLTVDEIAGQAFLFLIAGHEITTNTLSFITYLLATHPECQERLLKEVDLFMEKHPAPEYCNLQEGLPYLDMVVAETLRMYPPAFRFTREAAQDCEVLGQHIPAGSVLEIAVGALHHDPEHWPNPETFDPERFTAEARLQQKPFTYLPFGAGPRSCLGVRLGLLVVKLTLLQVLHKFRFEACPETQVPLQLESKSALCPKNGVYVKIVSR
Method: Under urethan anethesia, […] of arterial blood from Okamoto-Aoki spontaneously hypertensive rats (SHR) (Taconic Farms, Germantown, New York) between 19 and 24 weeks in age was collected in 1 ml of 3.2% sodium citrate in a polystyrene tube. The blood was diluted with 3 ml of cold saline and centrifuged at room temperature for 15 minutes at 460Xg. The platelet rich plasma (PRP) was separated. The platelets were isolated by centrifuging the PRP for 10 minutes at 1060Xg and were washed in 4 ml of cold oxygenated Krebs phosphate buffer, pH 7.4. The chilled platelets, recovered from centrifuging at 800Xg for 10 minutes, were resuspended in oxygenated Krebs phosphate buffer and diluted to contain 4.5-6.0×10^4 platelets/μl. The inhibition of thromboxane (TX) formation was studied by determining the concentration of thromboxane B2 (TXB2), the stable hydrolysis product of TXA2. Assay samples, prepared on ice, contained 200 μl platelet suspension, 50 μl saline, and 50 μl vehicle or drug under study at a concentration of 1×10^-4 M. The samples were incubated for 10 minutes at 37° C. in metabolic shaker. The reaction was terminated by immersing the tubes in an ice bath and adding 50 μl of 0.5M citric acid. The samples were centrifuged for 10 minutes in a refrigerated centrifuge and the supernatants thus obtained were decanted and stored at -20° C. The TXB2 content for each sample was determined by a direct radioimmunoassay (RIA) utilizing a TXB2 specific RIA kit purchased from New England Nuclear, Boston, Massachusetts and expressed as pg TXB2 formed minute^-1 sample^-1, from which the percent inhibition of TXB2 formation was calculated.

[3] = tested on: KCl-induced cardiac arrhythmias, fibrillation and cardiac death in mice; test: Antiarrhythmic/antifibrillatory activity in anesthetized mice, potassium chloride challenge; type: in vivo, mice of the Swiss Webster Strain; conditions: Mus musculus, iv, 0.25 h; Dose = 10 mg/kg I.V.; potassium chloride 62.5 mg/kg i.v.; 15 minutes observation; read-out: KCl Mice Surviving / Mice Tested (converted)
Excerpt: as §1, §2

[4] = tested on: spontaneously hypertensive rats of the Okamoto strain; test: Hypotensive activity in spontaneously hypertensive rats (method of Chan and Poorvin); type: in vivo, rat; conditions: by gavage, 100 mg/kg or less, two doses 24 hours apart; MABP at 28 hours after initial dose; average baseline MABP 160±1.5 mm of mercury
Method: The novel compounds of the present invention are active hypotensive agents and were tested for hypotensive activity by the method of P. S. Chan and D. Poorvin, Clinical and Experimental Hypertension, 1 (6), 817-830 (1979). Male, 16 week old, spontaneously hypertensive rats of the Okamoto strain, from Taconic Farms, Germantown, New York, having an average mean arterial blood pressure of 160±1.5 mm of mercury, were used in the test. One to 3 rats were used per test compound. […] A second identical dose of the test compound, without sodium chloride loading was given 24 hours later. At 28 hours after the initial dose the mean arterial blood pressure (MABP) was measured. The procedure was repeated in a second and third rat when necessary.

Row | Structure (SMILES) | responders at 10 mg/kg [1] [%] | inhibition at 100 µM [2] [%] | responders at 10 mg/kg [3] [%] | Avg. MABP in mm Hg (No. of Rats) [4] [mm Hg]
1 | c1ccc(CN2C(=NCCCCn3ccnc3)c3cccc4cccc2c34)cc1 [Example 23, N-[1-(Phenylmethyl)benz[cd]indol-2(1H)-ylidene-1H-imidazole-1-butanamine,(E)-2-butenedioate (1:2)] | 33.3 | 100 | 100 | 124
2 | CC(CCn1ccnc1)N=C1c2cccc3cccc(c23)N1C(c1ccccc1)c1ccccc1 (stereo not drawn) [Example 35, N-[1-(Diphenylmethyl)benz[cd]indol-2(1H)-ylidene]alpha-methyl-1H-imidazole-1-propanamine] | 0 | 88 | 50 | 127
3 | c1cc2c3c(cccc3c1)N(CCN1CCOCC1)C2=NCCCn1ccnc1 [Example 8, N-[1-[2-(4-Morpholinyl)ethyl]benz[cd]indol-2(1H)-ylidene-1H-imidazole-1-propanamine, (E)-2-butenedioate (1:2)] | 0 | 96 | 83.3 | 119
4 | CN1C(=NCCCc2cccnc2)c2cccc3cccc1c23 [Example 26, N-(1 Methylbenz[cd]indol-2(1H) -ylidene)-3-pyridinepropanamine, (E)-2-butenedioate (2:3)] | 16.7 | 93 | 33.3 | 114
5 | N#CCCCCN1C(=NCCCCc2cccnc2)c2cccc3cccc1c23 [Example 32, N2-[[4-(3-Pyridinyl)butyl]imino]benz[cd]indole-1(2H)-pentanenitrile, (E)2-butenedioate (4:7)] | 33.3 | 98 | 83.3 | 129
6 | CN1C(=NCCCCc2cccnc2)c2cccc3cccc1c23 [Example 27] | 58.3 | 100 | 50 | 107
